Experimental data: patent publication US20230141823A1, “PREBIOTIC AND PROBIOTIC TREATMENT TO REDUCE ORAL DYSBIOSIS AND PROMOTE EUBIOSIS” (FUNDACIÓN PARA EL FOMENTO DE LA INVESTIGACIÓN SANITARIA Y …, priority 2019, published 2023)

Legend:
[1] = system: oral biofilm grown from saliva of donors D2 and D25; assay: Effect of isolates on in vitro biofilms: colonization by sequencing; assay type: cell-based, human; details: 5 h of growth
Description: Six isolates selected as best potential probiotics based on the results from previous experiments were studied in vitro to define the effect of these isolates when they are added to an oral biofilm. These isolates were tested by growing them with saliva of two different donors (D2 and D25 in our database) in a 96-wells plate. For each experiment, there were 4 conditions: control, nitrate (i.e., 6.5 mM nitrate), control+isolate, and nitrate+isolate. […] Then, 100 pL of saliva (or BHI for negative controls) was added and, for the nitrate conditions, 10 pL of nitrate solution 65 mM was added (or 10 pL of BHI for control conditions). Negative controls were added in each experiment: only BHI medium and BHI medium+nitrate. Before being added to the 96-well plate, the isolates were grown for 24 h. Then, 40 pL isolate in BHI solution with OD 1.5 was added (or 40 pL of just BHI in conditions without isolates) to each well. The final concentration of nitrate was 6.5 mM and starting OD of the isolate was 0.24. The 96-well plate was sealed to prevent oxygen presence, and incubated during 5 h 30 min at 37° C. After that, the supernatant was collected, the pellet resuspended in 30 pL of PBS and both stored at −20° C. until measurements were performed. The DNA was extracted and the biofilms were sequenced as described in EXAMPLE 1.

unstimulated saliva = system: unstimulated saliva
Description: The unstimulated saliva of D25-D33 was used to test the effect of different concentrations of nitrate on a pH drop caused by 0.2% of glucose after 5 h of incubation. For each donor, 187 µl of saliva and 22 µl of glucose (2% diluted in water) was added per well of a standard 96-well plate. Then, 11 pL of water without or with different concentrations of nitrate was added, leading to final concentrations of 0 mM, 0.5 mM, 1 mM, 1.5 mM, 2.5 mM, 3.5 mM, 4.5 mM, 5.5 mM, 6.5 mM, 7.5 mM and 8.5 mM of nitrate. The plate was sealed with adhesive aluminum foil (VWR) and incubated during 5 h at 37° C. After incubation, the samples were stored at −20° C. until pH measurements.
(§1) For the nitrate, nitrite, ammonium, lactate and pH measurements, the RQflex® 10 Reflectoquant® (Merck Millipores), a reflectometer that measures the reflection of color changing test strips, was used.

[2] = adult of 60 kg; cited from earlier work
[3] = system: biofilms from subgingival plaque of patients with periodontitis
Description: In addition to the oral biofilms from healthy individuals provided in EXAMPLE 1, ex vivo experiments with a dysbiotic community (subgingival plaque samples from patients with periodontitis) were performed. Eleven patients diagnosed with periodontitis were enrolled into the study. Subgingival plaque was collected by inserting eight to ten sterile paper points inside the deepest periodontal pockets. The paper points were then transferred to a 2 mL tube containing reduced transport media (RTF) and stored in a cooling box at around 4° C. for max. 18 hours. For the biofilm growth, BHI containing vitamin K and hemin (as described in EXAMPLE 1) was used. Transport medium was removed by centrifugation (1 min, 12000 rpm), followed by resuspension into 1 mL BHI. The xCELLigence system described in EXAMPLE 1 was used. Patient samples were incubated under four different conditions; control, nitrate, control+probiotic and nitrate+probiotic. First, 100 µl of periodontal plaque in BHI was added to the wells. Then, for the nitrate condition, 5 µl of 250 mM nitrate in BHI was added to the wells to obtain a 5 mM nitrate concentration. For the control+probiotic and nitrate+probiotic conditions, 45 pi of R. aeria D1P7 culture of OD (600 nm)=0.417 was added to the wells, resulting in a final OD (600 nm) of 0.075 per well. BHI was added to reach a final volume of 250 pi. A medium control (without patient sample or probiotic) with nitrate (Cntr) was used to determine the initial amounts of nitrate and nitrite in the medium. After 7 hours of incubation, supernatant and biofilm was harvested for nitrate/nitrite measurements and 16S rRNA gene sequencing, respectively (both described in EXAMPLE 1).

[4] = system: oral biofilms grown from unstimulated saliva
Description: BHI medium (Biolife) with an additional 0.05 mg/L haemin, 0.005 mg/L menadione and 0.2 mM vitamin K (all Sigma-Aldrich) was prepared of which 100 pi was added to each well for background impedance measurements. An additional 25 µl of a 65 mM nitrate in water or just water were added to each well of the nitrate or control condition, respectively. Then, 125 pi freshly collected saliva was added, leading to a final concentration of 6.5 mM nitrate in the nitrate condition. The E-Plate 96 was placed in the xCELLigence system inside an incubator at 37° C. Every 10 minutes, a Cell Index measurement was taken. […] For Oh measurements, 1:1 medium and saliva mixtures were used. Then, duplicates of supernatant and biofilm were taken after 5 h and 9 h of growth. The supernatant was sampled and stored at −20° C. until pH, nitrate, nitrite, ammonium and lactate measurements. After this, a PBS washing step was performed and duplicates of biofilms were resuspended together in 200 pi PBS for storage at −20° C. until DNA isolation for sequencing.
as §1
In the case of nitrate, nitrite, ammonium and lactate measurements, the supernatant of the cultures was diluted 1:10 with water to minimize the interference of medium compounds. […] For pH measurements, undiluted supernatant was used. For all measurements except ammonium, 15 pi of (diluted) supernatant was added to two reactive patches on a strip, excess liquid was removed by tipping the side of the strip on a tissue, the corresponding incubation time was applied for each measurement, and the strip was put inside the reflectometer.
Nitrite was measured first. The diluted supernatants in which 0.5 mg/l or more nitrite was detected were treated with amidosulfuric acid to remove nitrite before nitrate measurements. For this, […] of diluted supernatant was mixed with 1.5 ml amidosulfuric acid solution (10%), and directly added to the strips.
For ammonium measurements, aliquots were made of […] diluted supernatant to which 10 m l of reagent 1 of the kit was added first and resuspended well. Then, […] of a freshly made mixture of one scoop of reagent 2 (both provided with the kit) dissolved in 1.25 ml water was added directly and resuspended well. This solution was then directly added to the strips and incubated. Five seconds before the measurements, excess liquid was removed. All measured concentrations were adjusted by dilution factors.

[5] = Donor 2, Nitrate condition (6.5 mM)
[6] = Donor 25, Nitrate condition (6.5 mM)

Compound: O=[N+]([O-])O [Nitrate, nitrate]
- R. aeria (%) in biofilm [1, 5]: 0.06%
- R. mucilaginosa (%) in biofilm [1, 5]: 2.33%
- R. aeria (%) in biofilm [1, 6]: 0.03%
- R. mucilaginosa (%) in biofilm [1, 6]: 7.94%
- salivary pH after 5 h compared to 0 mM nitrate (unstimulated saliva; 0.2% glucose, nitrate 0.5 mM to 8.5 mM): higher pH
- nitrate concentrations for which no additional benefits were observed (unstimulated saliva; after 5 h): above 3.5 mM
- nitrate concentrations that prevented salivary acidification due to glucose fermentation (unstimulated saliva; after 5 h): ≥ 0.5 mM
- Acceptable Daily Intake, ADI [2]: 222 mg
- mean growth curve of the periodontitis biofilms versus control condition ([3]; 11 patients, 7 h): lower
- levels of periodontal pathogens such as Porphyromonas, Eikenella and Tannerella ([3]; 7 hours, versus control): reducing the levels
- nitrate reduced after the 7 hours of growth ([3]; periodontal samples (n=11), anaerobic): around 20%
- decrease of nitrate after 5 h ([4]; 6.5 mM nitrate added, 5 of 12 donors): 76-85%
- nitrate left after 5 h ([4]; 6.5 mM nitrate added, 7 of 12 individuals): no nitrate detectable
- average nitrite in supernatant ([4]; 6.5 mM nitrate condition, 5 h (1.64 mg/l at 0 h)): 64.68 mg/L
- pH compared to control condition ([4]; 6.5 mM nitrate, 5 h and 9 h, p<0.005): significantly higher
- share of the 6.5 mM added nitrate accounted for by ammonium (stoichiometric) ([4]; after 9 h): 73.1%
- increase of average ammonium after 5 h ([4]; nitrate condition (control 1.72×)): 2.21 ×
- increase of average lactate after 5 h ([4]; nitrate condition (control 4.74×)): 3.40 ×
- ammonium higher than in the control condition ([4]; nitrate condition, after 9 h): 4.75 mM
